In patent US20090062401A1, “DECALINE-DERIVED COMPOUNDS AS […] ACTIVE AGENTS” (UNIVERSITAT DORTMUND, priority 2004, published 2009) one finds IC50 data, which are given here for 21 compounds.

pIC50: −log10 of the molar value. Like-named read-outs stand apart in the source and are kept apart here.

For one experiment, the target named is VHR (Homo sapiens, UniProt P51452). In words: VHR phosphatase inhibition, general phosphatase assay using para-nitrophenylphosphate. The format is biochemical. The conditions noted are these: read-out: IC50 Target VHR. The source says:
(§1) Assays protocols for the other enzymes mentioned herein (MtPTPA, PP1, VHR, PTP1B) are disclosed in Schweizer R A S, Atanasov, G A, Frey B M, and Odermatt A, Mol. Cell. Endocrinol. 2003, 212, 41-49 and Barratte, B., Meijer L., Galaktionov K. & Beach D, Anticancer Res. 1992, 12, 873-880. For determination of the phosphatase activity, a general phosphatase assay using para-nitrophenylphosphate was applied.

The target in the next experiment is T1, Cdc25A (Homo sapiens, UniProt P30304).
T1 sequence (P30304 1-524): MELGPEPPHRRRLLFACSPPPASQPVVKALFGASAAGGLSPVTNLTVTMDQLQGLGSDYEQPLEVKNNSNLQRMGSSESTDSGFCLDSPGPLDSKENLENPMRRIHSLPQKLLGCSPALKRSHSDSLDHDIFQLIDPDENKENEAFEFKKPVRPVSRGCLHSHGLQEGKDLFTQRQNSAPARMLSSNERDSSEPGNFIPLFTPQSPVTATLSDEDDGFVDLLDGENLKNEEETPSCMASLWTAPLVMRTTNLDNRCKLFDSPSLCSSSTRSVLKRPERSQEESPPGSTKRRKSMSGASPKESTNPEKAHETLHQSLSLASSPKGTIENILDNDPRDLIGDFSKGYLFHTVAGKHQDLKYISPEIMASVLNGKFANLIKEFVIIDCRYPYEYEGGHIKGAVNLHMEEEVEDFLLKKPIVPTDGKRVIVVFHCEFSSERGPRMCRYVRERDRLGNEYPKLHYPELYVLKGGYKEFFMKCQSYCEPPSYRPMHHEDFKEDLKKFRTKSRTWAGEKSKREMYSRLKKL
In words: Cdc25A phosphatase inhibition. It counts as biochemical. From the text: (§2) Assay protocols for Cdc25A, 11βHSD1, 11βHSD2, and AChE are described in detain in the publication of Koch M A, Wittenberg L O, Basu S, Jeyaraj D A, Gourzoulidou E, Reinecke K, Odermatt A, Waldmann H (Proc. Natl. Acad. Sci. U.S.A. 2004 Nov. 30; 101(48):16721-6) and in Koch M A et al., Proc. Natl. Acad. Sci. U.S.A. 2005 Nov. 29; 102 (48):17272-7.

The next experiment deals with PP1. In words: PP1 phosphatase inhibition, general phosphatase assay using para-nitrophenylphosphate. The format is biochemical. The conditions noted are these: read-out: IC50 Target PP1.
Source text: as §1

Another experiment concerns the target T2, PTP1B (Homo sapiens, UniProt P18031).
T2 sequence (P18031 1-435): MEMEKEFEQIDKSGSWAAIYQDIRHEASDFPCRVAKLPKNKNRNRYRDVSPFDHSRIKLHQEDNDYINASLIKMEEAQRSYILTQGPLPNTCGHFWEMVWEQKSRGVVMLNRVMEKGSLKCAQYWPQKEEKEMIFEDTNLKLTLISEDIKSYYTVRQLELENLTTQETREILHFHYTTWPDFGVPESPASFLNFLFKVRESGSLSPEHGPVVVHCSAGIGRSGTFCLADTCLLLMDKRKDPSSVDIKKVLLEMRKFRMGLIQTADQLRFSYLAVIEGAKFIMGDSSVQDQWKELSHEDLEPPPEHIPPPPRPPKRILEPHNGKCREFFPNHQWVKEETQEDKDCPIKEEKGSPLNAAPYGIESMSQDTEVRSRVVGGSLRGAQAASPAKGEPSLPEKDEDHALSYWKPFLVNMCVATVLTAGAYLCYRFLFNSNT
The experiment in a line: PTP1B phosphatase inhibition, general phosphatase assay using para-nitrophenylphosphate. The format is biochemical.
Source text: as §1

A further experiment concerns the target MPTPA (Mycobacterium tuberculosis, UniProt P9WIA1). In words: MtPTPA phosphatase inhibition, general phosphatase assay using para-nitrophenylphosphate. It counts as biochemical.
Source text: as §1

The target of a further experiment is 11beta-HSD1 (Homo sapiens, UniProt P28845). In words: biochemical. Conditions: read-out: IC50 Target 11beta-HSD1.
Sequence of 11beta-HSD1 (P28845 whole entry): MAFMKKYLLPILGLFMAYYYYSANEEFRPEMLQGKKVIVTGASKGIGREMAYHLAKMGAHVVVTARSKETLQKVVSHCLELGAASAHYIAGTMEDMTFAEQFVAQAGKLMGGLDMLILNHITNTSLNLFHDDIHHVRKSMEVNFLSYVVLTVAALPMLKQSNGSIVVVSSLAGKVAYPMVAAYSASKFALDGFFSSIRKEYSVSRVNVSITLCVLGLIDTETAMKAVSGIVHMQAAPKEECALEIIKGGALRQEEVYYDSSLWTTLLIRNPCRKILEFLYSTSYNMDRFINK
Source text: as §2

Sequence of VHR (P51452 whole entry, species assumed): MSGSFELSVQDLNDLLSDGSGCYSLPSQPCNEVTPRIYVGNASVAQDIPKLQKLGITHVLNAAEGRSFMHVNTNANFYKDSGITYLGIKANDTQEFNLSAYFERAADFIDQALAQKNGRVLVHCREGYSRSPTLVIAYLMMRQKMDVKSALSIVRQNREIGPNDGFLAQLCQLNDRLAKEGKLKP
Sequence of MPTPA (P9WIA1 whole entry): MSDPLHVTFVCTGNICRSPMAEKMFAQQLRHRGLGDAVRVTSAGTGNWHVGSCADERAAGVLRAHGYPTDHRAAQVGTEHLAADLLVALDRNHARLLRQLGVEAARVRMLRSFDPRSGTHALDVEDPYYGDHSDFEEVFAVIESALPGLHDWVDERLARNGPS

Consider `CC1=C2CCC[C@H](O)[C@@]2(C)C/C(=C\c2ccc(C#Cc3cccc(F)c3)cc2)C1=O` [Compound 49, (3E,4aS,5S)-3-{4-[2-(3-Fluorphenyl)ethinyl]benzyliden}-4,4a,5,6,7,8-hexahydro-5-hydroxy-1,4a-dimethylnaphthalen-2(3H)-one], for which the pIC50 (commonly −log10 of the IC50, conventionally taken in molar units) at VHR is 4.30 to 5.00; at Cdc25A (read-out: IC50 Target Cdc25A), over 5.00; on PP1, over 5.00.

Consider `CC1=C2CCC[C@H](O)[C@@]2(C)CCC1=O` [Compound 413, (4aS,5S)-5-Hydroxy-1,4a-dimethyl-4,4a,5,6,7,8-hexahydro-3H-naphthalen-2-one], for which the pIC50 at VHR, at PTP1B (read-out: IC50 Target PTP1B) and on MPTPA (read-out: IC50 Target MPTPA) was 4.30 to 5.00 throughout.

Turning to `CC1=C(/C=C2\C[C@@]3(C)C(CCC[C@@H]3O)C(C)C2=O)NCC1` (stereo partly drawn) [Compound 158, (3E,4aS,5S)-Octahydro-3-[(4,5-dihydro-3-methyl-1H-pyrrol-2-yl)methylen]-5-hydroxy-1,4a-dimethylnaphthalen-2(1H)-one], the pIC50 on VHR, at PTP1B (read-out: IC50 Target PTP1B) and on MPTPA (read-out: IC50 Target MPTPA) was 4.30 to 5.00 in each case.

In the case of `CC1=C2CCC[C@H](O)[C@@]2(C)C/C(=C\c2ccc([N+](=O)[O-])cc2)C1=O` [Compound 17, (3E,4aS,5S)-3-(4-Nitrobenzyliden)-4,4a,5,6,7,8-hexahydro-5-hydroxy-1,4a-dimethylnaphthalen-2(3H)-one], the negative-log IC50 (pIC50) on PTP1B (read-out: IC50 Target PTP1B) and at PP1 was 4.30 to 5.00 each time.

Consider `CC1(CCCc2ccccc2)C(=O)CC[C@@]2(C)C1CCC[C@@H]2O` (stereo partly drawn) [Compound 397, (4aS,5S)-5-Hydroxy-1,4a-dimethyl-1-(3-phenyl-propyl)-octahydro-naphthalen-2-one], for which the pIC50 on VHR, on Cdc25A (read-out: IC50 Target Cdc25A) and at PP1 was 4.30 to 5.00 in each case.

Turning to `C=C(C)C#Cc1ccc(/C=C2\C[C@@]3(C)C(=C(C)C2=O)CCC[C@@H]3O)cc1` [Compound 56, (3E,4aS,5S)-3-[4-(3-Methylbut-3-en-1-inyl)benzyliden]-4,4a,5,6,7,8-hexahydro-5-hydroxy-1,4a-dimethylnaphthalen-2(3H)-on], the pIC50 at VHR, on PTP1B (read-out: IC50 Target PTP1B) and against MPTPA was 4.30 to 5.00 each time.

`CCCCCCCCCC#Cc1ccc(/C=C2\C[C@@]3(C)C(CCC[C@@H]3O)C(C)C2=O)cc1` (stereo partly drawn) [Compound 131, (E,4aS,5S)-3-[4-(Undec-1-inyl)benzyliden]-octahydro-5-hydroxy-1,4a-dimethylnaphthalen-2(1H)-one]: the negative logarithm of the IC50 (pIC50) at VHR and at MPTPA (read-out: IC50 Target MPTPA) was 4.30 to 5.00 throughout.

On to `CCCCCCCCCCCCCCC#Cc1ccc(/C=C2\C[C@@]3(Cc4ccccc4)C(=C(C)C2=O)CCC[C@@H]3O)cc1` [Compound 128, (3E,4aS,5S)-3-[4-(Hexadec-1-inyl)benzyliden]-4a-benzyl-4,4a,5,6,7,8-hexahydro-5-hydroxy-1-methylnaphthalen-2(3H)-one], for which the pIC50 on VHR and on MPTPA (read-out: IC50 Target MPTPA) was 4.30 to 5.00 in each case.

Regarding `CCN(CC)C1CC[C@@]2(C)C(=C1C)CCC[C@@H]2O` (stereo partly drawn) [Compound 388, (1S,8aS)-6-(Diethylamino)-1,2,3,4,6,7,8,8a-octahydro-5,8a-dimethylnaphthalen-1-ol], the pIC50 at MPTPA (read-out: IC50 Target MPTPA) was 4.30 to 5.00.

As to `CCCCCCC#Cc1ccc(/C=C2\C[C@@]3(C)C(CCC[C@@H]3O)C(C)C2=O)cc1` (stereo partly drawn) [Compound 125, (E,4aS,5S)-3-[4-(Oct-1-inyl)-benzyliden]-octahydro-5-hydroxy-1,4a-dimethylnaphthalen-2(1H)-one], the pIC50 on VHR and on MPTPA (read-out: IC50 Target MPTPA) was 4.30 to 5.00 throughout.

With `CCCCCCCCCCC#Cc1ccc(/C=C2\C[C@@]3(C)C(=C(C)C2=O)CCC[C@@H]3O)cc1` [Compound 45, (3E,4aS,5S)-3-[4-(Dodec-1-inyl)benzyliden]-4,4a,5,6,7,8-hexahydro-5-hydroxy-1,4a-dimethyl-naphthalen-2(3H)-on], the results for the pIC50 at VHR, at PTP1B (read-out: IC50 Target PTP1B) and at PP1 were 4.30 to 5.00, 4.30 to 5.00 and over 5.00, respectively.

With `C/C=C1\CC[C@@]2(C)C(=C1C)CCC[C@@H]2O` [Compound 411, (2E,4aS,5S)-6-Ethylidene-5,8a-dimethyl-1,2,3,4,6,7,8,8a-octahydro-naphthalen-1-ol], the pIC50 at PP1 was 4.30 to 5.00.

With `CC1=C2CCC[C@H](O)[C@@]2(C)C/C(=C\c2ccc(C#C[Si](C)(C)C)cc2)C1=O` [Compound 53, (3E,4aS,5S)-3-{4-[2-(Trimethylsilyl)ethinyl]benzyliden}-4,4a,5,6,7,8-hexahydro-5-hydroxy-1,4a-dimethylnaphthalen-2(3H)-on], the pIC50 against PTP1B, against Cdc25A and at PP1 was 4.30 to 5.00 in each case.

Consider `CCC(c1ccc(I)cc1)C1C[C@@]2(C)C(=C(C)C1=O)CCC[C@@H]2O` (stereo partly drawn) [Compound 412, (4aS,5S)-5-Hydroxy-3-[1-(4-iodo-phenyl)-propyl]-1,4a-dimethyl-4,4a,5,6,7,8-hexahydro-3H-naphthalen-2-one], for which the pIC50 on VHR, on PTP1B (read-out: IC50 Target PTP1B) and at MPTPA (read-out: IC50 Target MPTPA) was 4.30 to 5.00 throughout.

Consider `CC1=C2CCC[C@H](O)[C@@]2(C)CC(=Cc2ccc(C#CCN(C)C)cc2)C1=O` [Compound 396, (4aS,5S)-3-[4-(3-Dimethylamino-prop-1-ynyl)-benzylidene]-5-hydroxy-1,4a-dimethyl-4,4a,5,6,7,8-hexahydro-3H-naphthalen-2-one], for which the pIC50 on VHR, at PTP1B (read-out: IC50 Target PTP1B) and on MPTPA was 4.30 to 5.00 each time.

`COc1ccc(/C=C2\C[C@@]3(C)C(=C(C)C2=O)CCC[C@@H]3O)cc1` [Compound 24, (3E,4aS,5S)-3-(4-Methoxybenzyliden)-4,4a,5,6,7,8-hexahydro-5-hydroxy-1,4a-dimethylnaphthalen-2(3H)-on]: the pIC50 at VHR is 4.30 to 5.00; at PTP1B (read-out: IC50 Target PTP1B), 4.30 to 5.00; on Cdc25A (read-out: IC50 Target Cdc25A) it was 4.30 to 5.00; against MPTPA, 4.30 to 5.00; at 11beta-HSD1, over 5.00.

Turning to `CCCCCCCCCCCCC#Cc1ccc(/C=C2\C[C@@]3(C)C(CCC[C@@H]3O)C(C)C2=O)cc1` (stereo partly drawn) [Compound 133, (E,4aS,5S)-3-[4-(Tetradec-1-inyl)benzyliden]-octahydro-5-hydroxy-1,4a-dimethylnaphthalen-2(1H)-one], the pIC50 on VHR and at MPTPA (read-out: IC50 Target MPTPA) was 4.30 to 5.00 in each case.

As for `CCCCCCCCCCCCCCC#Cc1ccc(/C=C2\C[C@@]3(C)C(CCC[C@@H]3O)C(C)C2=O)cc1` (stereo partly drawn) [Compound 127, (E,4aS,5S)-3-[4-(Hexadec-1-inyl)benzyliden]-octahydro-5-hydroxy-1,4a-dimethylnaphthalen-2(1H)-one], the pIC50 on VHR and at MPTPA (read-out: IC50 Target MPTPA) was 4.30 to 5.00 in each case.

On to `CCCC#Cc1ccc(/C=C2\C[C@@]3(Cc4ccccc4)C(=C(C)C2=O)CCC[C@@H]3O)cc1` [Compound 130, (3E,4aS,5S)-3-[4-(Pent-1-inyl)benzyliden]-4a-benzyl-4,4a,5,6,7,8-hexahydro-5-hydroxy-1-methylnaphthalen-2(3H)-one], for which the pIC50 at VHR and at MPTPA (read-out: IC50 Target MPTPA) was 4.30 to 5.00 throughout.

With `CCCCCCCCCCCCC#Cc1ccc(/C=C2\C[C@@]3(Cc4ccccc4)C(=C(C)C2=O)CCC[C@@H]3O)cc1` [Compound 134, (3E,4aS,5S)-3-[4-(Tetradec-1-inyl)benzyliden]-4a-benzyl-4,4a,5,6,7,8-hexahydro-5-hydroxy-1-methylnaphthalen-2(3H)-one], the pIC50 at VHR and on MPTPA (read-out: IC50 Target MPTPA) was 4.30 to 5.00 throughout.

As to `CC1=C2CCC[C@H](O)[C@@]2(C)C/C(=C\c2ccc(C#CCCO)cc2)C1=O` [Compound 55, (3E,4aS,5S)-3-[4-(4-Hydroxybut-1-inyl)benzyliden]-4,4a,5,6,7,8-hexahydro-5-hydroxy-1,4a-dimethylnaphthalen-2(3H)-one], the negative-log IC50 (pIC50) is 4.30 to 5.00 at VHR, 4.30 to 5.00 at PTP1B (read-out: IC50 Target PTP1B), over 5.00 on Cdc25A (read-out: IC50 Target Cdc25A) and 4.30 to 5.00 against MPTPA.
